Marks after values point to notes of the source that are not given here.
Columns and labels:
Format in all cases: in vivo, mouse
KK-A^y/Ta Jcl mice [1] = experiment: Plasma TC, TG, blood-sugar, IRI and IRG levels 3 hours subsequent to the glucose-loading test (Example 1); conditions: 3 hours subsequent to glucose-loading test
Experimental: (§1) As from Day 14 afterwards, the animals after being fasted for 18 hours or more were loaded orally with a glucose solution (2 g/kg, 10 mL/kg), whereby the blood-sugar levels were measured before, and 120 min. after, the said glucose loading. Each of the compounds was given orally to the animals 3 hours prior to the glucose loading, and the whole blood was drawn from each of the animals under anesthesia. Each of the said blood samples was centrifuged to yield a blood plasma, and the resultant blood plasmas were all preserved under freezing in a ultra-low-temperature freezer for subsequent use in the below-described measurements.
(§2) The blood-sugar level, total cholesterol level (hereinafter referred to briefly as “TC level”) and triglyceride level (hereinafter referred to briefly as “TG level”) were detected individually in accordance with the hexokinase/G-6-PDH method, enzyme method and GPO/HDAOS method, and measured with use of Biochemical Auto-Analyzer (Model AU 400, manufactured by Olympus Co. of Japan). The plasma insulin level (hereinafter referred to briefly as “IRI level”) and the plasma glucagon level (hereinafter referred to briefly as “IRG level”) were detected individually with the ELISA method (Lebisinsulin Mouse Insulin Kit, produced by K.K. Shibayagi of Japan) and the ELISA method (YK090 Glucagon EIA Kit, produced by K.K. Yanaihara Kenkyuu-sho of Japan), followed by measurement with use of a plate reader (Immuno Mini NJ-2300, Nalge Nunc International K.K. of Japan).
(§3) The blood-sugar, TC, TG, IRI and IRG levels and the body weight were expressed as a mean value±standard deviation as calculated for each group of animals. With reference to the significance test between the group treated through administration of the medium and each group treated through administration of the compound, the F test was effected to analyze the data and then, the Student's t-test and Aspin-Welch's t-test were used in cases where the variance between the two groups was determined to be equal and unequal, respectively. Referring to the significance level, less than 5% (p<0.05) was considered significant, and the significance level was expressed as divided into the two events of less than 1% (**: p<0.01) and less than 5% (*: p<0.05).

[2] = Body weight after repeated administration for 14 days (Example 1); conditions: after repeated administration for 14 consecutive days
Experimental: Following the above-described single administration, the repeated, once-a-day forced oral administration of each compound was performed at the same daily dose for the total period of 14 consecutive days. […] The blood-sugar, TC, TG, IRI and IRG levels and the body weight were expressed as a mean value±standard deviation as calculated for each group of animals. With reference to the significance test between the group treated through administration of the medium and each group treated through administration of the compound, the F test was effected to analyze the data and then, the Student's t-test and Aspin-Welch's t-test were used in cases where the variance between the two groups was determined to be equal and unequal, respectively.

KK-A^y/Ta Jcl mice [3] = experiment: Glucose loading test after repeated administration for 14 days (Example 1)
Experimental: as §1, §2, §3

KK-A^y/Ta Jcl mice [4] = experiment: Blood-sugar level after single and repeated oral administration (Example 1)
Experimental: On the day of initiation of administration (Day 1 of Administration), the obese/spontaneously type II diabetic mice; KK-A^y/Ta Jcl mice (male, 6-weeks aged, n=8) were treated through individual oral administration of the Test Compound 1 (ethyl N-allyl-N—[(E)-2-methyl-3-[4-(4-amidinophenoxycarbonyl)-phenyl]propenoyl]aminoacetate/methanesulfonate) of the present invention and the Control Compound 1 (5-{4-[2-(5-ethylpyridine-2-yl)ethoxy]benzyl}-1,3-thiazolidine-2,4-dione; pioglitazone) at the daily dose of 30 mg/kg, or the control medium (0.5% CMC), and blood was drawn from each animal through the orbital venous plexus 6 hours after administration. The blood-sugar levels were measured in accordance with the enzyme electrode method by use of Antosense II (manufactured by Daikin Kogyo KK of Japan). The said test was carried out while the animals were allowed free access to food and water.
Following the above-described single administration, the repeated, once-a-day forced oral administration of each compound was performed at the same daily dose for the total period of 14 consecutive days. On Days 3 and 11, blood was drawn in the same manner as described above 6 hours after administration of each compound, followed by measurement of the blood-sugar level.
as §3

[5] = repeated once-a-day oral 30 mg/kg, 6 hours after administration

C=CCN(CC(=O)OCC)C(=O)/C(C)=C/c1ccc(C(=O)Oc2ccc(C(=N)N)cc2)cc1 [Test Compound 1, ethyl N-allyl-N—[(E)-2-methyl-3-[4-(4-amidinophenoxycarbonyl)-phenyl]propenoyl]aminoacetate/methanesulfonate]
Effect on IRG level (in words) (KK-A^y/Ta Jcl mice [1]; after 14 days): a decrease in the IRG level | Effect on IRI level (in words) (KK-A^y/Ta Jcl mice [1]; after 14 days): an increase in the IRI level | Effect on TC level (in words) (KK-A^y/Ta Jcl mice [1]; after 14 days): decreases | Effect on TG level (in words) (KK-A^y/Ta Jcl mice [1]; after 14 days): decreases | Effect on blood-sugar level (in words) (KK-A^y/Ta Jcl mice [1]; after 14 days): a decrease in the blood-sugar level | Blood-sugar level (KK-A^y/Ta Jcl mice [1]; after 14 days 30 mg/kg p.o.): 251.0 ± 7.2 mg/dL | IRG (plasma glucagon level) (KK-A^y/Ta Jcl mice [1]; after 14 days 30 mg/kg p.o.): 411 ± 31.5 pg/mL | IRI (plasma insulin level) (KK-A^y/Ta Jcl mice [1]; after 14 days 30 mg/kg p.o.): 1.74 ± 0.17 ng/mL | TC (KK-A^y/Ta Jcl mice [1]; after 14 days 30 mg/kg p.o.): 99.2 ± 3.6 mg/dL | TG (KK-A^y/Ta Jcl mice [1]; after 14 days 30 mg/kg p.o.): 81.4 ± 7.1 mg/dL | Effect on mouse body-weight vs control medium group (in words) [2]: did not show any changes in the mouse body-weight | Body weight ([2]; 30 mg/kg p.o.): 29.3 ± 0.3 g | Blood-sugar level before glucose loading (KK-A^y/Ta Jcl mice [3]; after 14 days 30 mg/kg p.o., fasted, compound 3 hours prior to loading): 155.0 ± 5.2 mg/dL | Blood-sugar level 120 Min. after glucose loading (KK-A^y/Ta Jcl mice [3]; after 14 days 30 mg/kg p.o., glucose 2 g/kg orally): 235.0 ± 5.9* mg/dL | Blood-sugar lowering action in the glucose loading test vs medium control group (in words) (KK-A^y/Ta Jcl mice [3]; after repeated administration for 14 consecutive days): significant blood-sugar lowering action | Effect on impaired glucose tolerance (in words) (KK-A^y/Ta Jcl mice [3]; repeated forced oral administration, spontaneously diabetic mice): ameliorated impaired glucose tolerance | Blood-sugar level before administration (KK-A^y/Ta Jcl mice [4]; Day 1, before single oral administration of 30 mg/kg (baseline)): 443.5 ± 19.6 mg/dL | Blood-sugar lowering action (in words) (KK-A^y/Ta Jcl mice [4]; repeated administration 30 mg/kg, Days 3 and 11): blood-sugar lowering action | Blood-sugar level Day 3 (KK-A^y/Ta Jcl mice [4]; [5]): 205.5 ± 7.0* mg/dL | Blood-sugar level Day 11 (KK-A^y/Ta Jcl mice [4]; [5]): 297.4 ± 18.4 mg/dL | Blood-sugar lowering action vs control medium group (in words) (KK-A^y/Ta Jcl mice [4]; single administration 30 mg/kg, 6 hours after administration): significant blood-sugar lowering action | Blood-sugar level 6 hrs. after administration (KK-A^y/Ta Jcl mice [4]; single oral administration, 30 mg/kg): 263.5 ± 11.0* mg/dL

From patent US7671057B2, “Therapeutic agent for type II diabetes comprising protease-inhibiting compound” (Ono Pharmaceutical Co., Ltd., priority 2004, dated 2010)
